The target in this test is PLpro of SARS-CoV-2 (Severe acute respiratory syndrome coronavirus 2, UniProt P0DTD1). In words: Enzyme activity test in vitro: inhibition of PLpro at fixed concentration 50 μM (RLRGG-AMC substrate). The note with it: read-out: Inhibition rate at 50 μM (%). The test is classed as biochemical.
In the case of `CC(C)NC(=O)c1ccc(Nc2c(-c3ccc(Cl)cc3)nc3cnccn23)cc1` [P22442, 4-[[2-(4-chlorophenyl)imidazo[1,2-a]pyrazin-3-yl]amino]-N-propan-2-ylbenzamide], the inhibition at 50 µM came out at 37.1%.
For the compound `CCNC(=O)c1ccc(Nc2c(-c3ccc(OC)c(OC)c3)nc3cnccn23)cc1` [P22410, 4-[[2-(3,4-dimethoxy-phenyl)imidazo[1,2-a]pyrazin-3-yl]amino]-N-ethylbenzamide], the inhibition at 50 µM came out at 42.2%.
For the compound `COC(=O)c1cccc(Nc2c(-c3ccccc3)nc3cnccn23)c1` [P19476, methyl 3-[(2-phenylimidazo [1,2-a]pyrazin-3-yl)amino]benzoate], the inhibition at 50 µM stood at 34%.
Turning to `CCOC(=O)c1ccc(Nc2c(-c3ccc(C)cc3)nc3cnccn23)cc1` [P22482, ethyl 4-[[2-(4-methylphenyl)imidazo[1,2-a]pyrazin-3-yl]amino] benzoate], the inhibition at 50 µM was determined as 22.2%.
`CSc1ccc(-c2nc3cnccn3c2Nc2ccc(C(=O)NCc3ccco3)cc2)cc1` [P22465, N-(furan-2-ylmethyl)-4-[[2-(4-methyl-sulfanylphenyl)imidazo [1,2-a]pyrazin-3-yl]amino]benzamide]: the inhibition at 50 µM was 29.6%.
In the case of `CNC(=O)c1cccc(Nc2c(-c3ccc(SC)cc3)nc3cnccn23)c1` [P22436, N-methyl-3-[[2-(4-methylsulfanylphenyl)imidazo[1,2-a]pyrazin-3-yl]amino] benzamide], the inhibition at 50 µM was determined as 31.3%.
Then `COC(=O)c1ccc(-c2nc3cnccn3c2Nc2cccc(C(F)(F)F)c2)cc1` [P37317, methyl 4-[3-[3-(trifluoro-methyl)anilino]imidazo [1,2-a]pyrazin-2-yl]benzoate], with 27.6%.
Then `CCOC(=O)c1ccc(Nc2c(-c3cc(Br)ccc3O)nc3cnccn23)cc1` [P22542, ethyl 4-[[2-(5-bromo-2-hydroxyphenyl)imidazo [1,2-a]pyrazin-3-yl]amino]benzoate], with 31.5%; and `COC(=O)c1cccc(Nc2c(-c3cccc(Br)c3)nc3cnccn23)c1` [P32343, methyl 3-[[2-(3-bromophenyl)imidazo[1,2-a]pyrazin-3-yl]amino] benzoate], with 12.9%.
Then `O=C(c1ccc(Nc2c(-c3ccccc3)nc3cnccn23)cc1)N1CCCCC1` [P22444, [4-[(2-phenylimidazo [1,2-a]pyrazin-3-yl)amino]phenyl]-piperidin-1-ylmethanone], with 43.9%.
In the case of `COC(=O)c1ccc(-c2nc3cnccn3c2Nc2ccc(OC)cc2)cc1` [P28376, methyl 4-[3-(4-methoxy-anilino)imidazo[1,2-a]pyrazin-2-yl]benzoate], the inhibition at 50 µM stood at 28.5%.
Then `CCOC(=O)c1ccc(Nc2c(-c3ccc(O)cc3)nc3cnccn23)cc1` [P19504, ethyl 4-[[2-(4-hydroxy-phenyl)imidazo[1,2-a]pyrazin-3-yl]amino] benzoate], with 32.6%; and `O=C(NCCN1CCOCC1)c1cccc(Nc2c(-c3ccccc3)nc3cnccn23)c1` [P22427, N-[2-(1,4-oxazinan-4-yl)ethyl]-3-[(2-phenylimidazo[1,2-a]pyrazin-3-yl)amino] benzamide], with 22.8%.
Then `CCNC(=O)c1ccc(Nc2c(-c3ccc(Cl)cc3)nc3cnccn23)cc1` [P22402, 4-[[2-(4-chlorophenyl)imidazo[1,2-a]pyrazin-3-yl]amino]-N-ethylbenzamide], with 31.3%.
Then `CC(C)NC(=O)c1cccc(Nc2c(-c3ccc(Cl)cc3)nc3cnccn23)c1` [P22407, 3-[[2-(4-chlorophenyl)imidazo[1,2-a]pyrazin-3-yl]amino]-N-propan-2-ylbenzamide], with 32.6%; and `O=C(O)c1cccc(Nc2c(-c3ccc(N4CCOCC4)cc3)nc3cnccn23)c1` [P24833, 3-[[2-(4-morpholin-4-ylphenyl)imidazo [1,2-a]pyrazin-3-yl]amino]benzoic acid], with 35.1%.
Consider `CCOC(=O)c1ccc(Nc2c(-c3ccc(OC)cc3)nc3cnccn23)cc1` [P22531, ethyl 4-[[2-(4-methoxy-phenyl)imidazo[1,2-a]pyrazin-3-yl]amino] benzoate], for which the inhibition at 50 µM turned out to be 31.9%.
`CNC(=O)c1cccc(Nc2c(-c3ccccc3)nc3cnccn23)c1` [P22416, N-methyl-3-[(2-phenylimidazo[1,2-a]pyrazin-3-yl)amino] benzamide]: the inhibition at 50 µM turned out to be 30.2%.
Then `CCOC(=O)c1ccc(Nc2c(-c3ccc(C(=O)OC)cc3)nc3cnccn23)cc1` [P22521, methyl 4-[3-(4-ethoxy-carbonylanilino)imidazo[1,2-a]pyrazin-2-yl]benzoate], with 22%; and `COC(=O)c1cccc(Nc2c(-c3ccccc3O)nc3cnccn23)c1` [P37347, methyl 3-[[2-(2-hydroxy-phenyl)imidazo[1,2-a]pyrazin-3-yl]amino] benzoate], with 25%; and `CSc1ccc(-c2nc3cnccn3c2Nc2cccc(C(=O)NCCN(C)C)c2)cc1` [P22467, N-[2-(dimethylamino)ethyl]-3-[[2-(4-methylsulfanylphenyl)imidazo[1,2-a]pyrazin-3-yl]amino] benzamide], with 29.8%.
Consider `O=C(c1cccc(Nc2c(-c3ccc(Cl)cc3)nc3cnccn23)c1)N1CCCCC1` [P22468, [3-[[2-(4-chlorophenyl)imidazo[1,2-a]pyrazin-3-yl]amino]phenyl]-piperidin-1-ylmethanone], for which the inhibition at 50 µM turned out to be 29%.
Then `COc1ccc(-c2nc3cnccn3c2Nc2cccc(C(=O)O)c2)cc1` [P19486, 3-[[2-(4-methoxy-phenyl)imidazo[1,2-a]pyrazin-3-yl]amino] benzoic acid], with 40.1%.
Consider `CSc1ccc(-c2nc3cnccn3c2Nc2cccc(C(=O)NC(C)C)c2)cc1` [P22417, 3-[[2-(4-methyl-sulfanylphenyl)imidazo [1,2-a]pyrazin-3-yl]amino]-N-propan-2-ylbenzamide], for which the inhibition at 50 µM is 43.4%.
Then `CCOC(=O)c1ccc(Nc2c(-c3cccc(Br)c3)nc3cnccn23)cc1` [P22532, ethyl 4-[[2-(3-bromophenyl)imidazo[1,2-a]pyrazin-3-yl]amino] benzoate], with 24.2%; and `COc1cc(-c2nc3cnccn3c2Nc2cccc(C(=O)O)c2)ccc1O` [P19506, 3-[[2-(4-hydroxy-3-methoxyphenyl)imidazo [1,2-a]pyrazin-3-yl]amino]benzoic acid], with 34%; and `CSc1ccc(-c2nc3cnccn3c2Nc2cccc(C(N)=O)c2)cc1` [P19502, 3-[[2-(4-methyl-sulfanylphenyl)imidazo [1,2-a]pyrazin-3-yl]amino]benzamide], with 39.1%.
With `Fc1ccc(-c2nc3cnccn3c2Nc2ccc3c(c2)OCO3)cc1` [P28366, N-(1,3-benzodioxol-5-yl)-2-(4-fluoro-phenyl)imidazo[1,2-a]pyrazin-3-amine], the inhibition at 50 µM worked out at 36.3%.
Regarding `CCNC(=O)c1ccc(-c2nc3cnccn3c2Nc2c(C)cccc2CC)cc1` [P22511, N-ethyl-4-[3-(2-ethyl-6-methylanilino)imidazo[1,2-a]pyrazin-2-yl]benzamide], the inhibition at 50 µM came to 27.7%.
Then `COC(=O)c1cccc(Nc2c(-c3cccc(O)c3)nc3cnccn23)c1` [P37288, methyl 3-[[2-(3-hydroxy-phenyl)imidazo[1,2-a]pyrazin-3-yl]amino]benzoate], with 13.2%; and `COC(=O)c1ccc(-c2nc3cnccn3c2Nc2ccc(Cl)cc2)cc1` [P19484, methyl 4-[3-(4-chloroanilino)imidazo[1,2-a]pyrazin-2-yl]benzoate], with 42.4%; and `O=C(O)c1cccc(Nc2c(-c3ccc(F)cc3)nc3cnccn23)c1` [P19477, 3-[[2-(4-fluorophenyl)imidazo[1,2-a]pyrazin-3-yl]amino] benzoic acid], with 5.91%.
Then `CCOC(=O)c1ccc(Nc2c(-c3ccc(SC)cc3)nc3cnccn23)cc1` [P22541, ethyl 4-[[2-(4-methyl-sulfanylphenyl)imidazo [1,2-a]pyrazin-3-yl]amino]benzoate], with 33.8%; and `O=C(O)c1ccc(Nc2c(-c3ccc(N4CCOCC4)cc3)nc3cnccn23)cc1` [P24813, 4-[[2-(4-morpholin-4-ylphenyl)imidazo [1,2-a]pyrazin-3-yl]amino]benzoic acid], with 31.9%.
Then `Cc1ccc(-c2nc3cnccn3c2Nc2cccc(C(=O)O)c2)cc1` [P37308, 3-[[2-(4-methyl-phenyl)imidazo[1,2-a]pyrazin-3-yl]amino] benzoic acid], with 20.8%; and `CCNC(=O)c1ccc(Nc2c(-c3ccc(C)cc3)nc3cnccn23)cc1` [P22412, N-ethyl-4-[[2-(4-methylphenyl)imidazo [1,2-a]pyrazin-3-yl]amino]benzamide], with 33.5%.
With `CCc1cccc(C)c1Nc1c(-c2ccc(C(=O)OC)cc2)nc2cnccn12` [P36232, methyl 4-[3-(2-ethyl-6-methylanilino)imidazo [1,2-a]pyrazin-2-yl]benzoate], the inhibition at 50 µM is 20.3%.
Then `COC(=O)c1ccc(-c2nc3cnccn3c2Nc2ccc3c(c2)OCO3)cc1` [P24872, methyl 4-[3-(1,3-benzodioxol-5-ylamino)imidazo [1,2-a]pyrazin-2-yl]benzoate], with 27.2%; and `COc1ccc(-c2nc3cnccn3c2Nc2ccc(C(=O)O)cc2)cc1` [P19514, 4-[[2-(4-methoxy-phenyl)imidazo[1,2-a]pyrazin-3-yl]amino] benzoic acid], with 36%; and `COC(=O)c1cccc(Nc2c(-c3ccc(C)cc3)nc3cnccn23)c1` [P19515, methyl 3-[[2-(4-methyl-phenyl)imidazo[1,2-a]pyrazin-3-yl]amino] benzoate], with 37.1%.
Consider `COc1ccc(-c2nc3cnccn3c2Nc2ccc(C(=O)NC3CCCCC3)cc2)cc1OC` [P22450, N-cyclohexyl-4-[[2-(3,4-dimethoxyphenyl)imidazo[1,2-a]pyrazin-3-yl]amino] benzamide], for which the inhibition at 50 µM was 20.8%.
As for `O=C(NC1CCCCC1)c1ccc(Nc2c(-c3ccccc3)nc3cnccn23)cc1` [P22404, N-cyclohexyl-4-[(2-phenylimidazo[1,2-a]pyrazin-3-yl)amino] benzamide], the inhibition at 50 µM was 26.1%.

For orientation: inhibition means the relative decrease from the control value, in per cent.
